Patent US20230285389A1, “USE OF CSF-1R KINASE INHIBITOR” (Shanghai Runshi Medical Technology Co., Ltd, priority 2020, published 2023)

Assays:
[1] = system: MC38 subcutaneous xenograft; assay: Immune cell subpopulation scan in tumor tissue of MC38 xenograft model; type: in vivo, mouse
Protocol: MC38 cells in good condition were re-suspended to 25 million cells/mL. 200 µL of cell suspension was inoculated subcutaneously in the right armpit of each mouse. When the tumor cells formed subcutaneous xenograft in the mice and grew to an average volume of approximately 100 mm^3, the mice were randomly assigned to the dosing group and the control group. The test compounds were prepared at the desired concentrations and corresponding equal amount of solvent was used as a solvent control. The drugs were administrated orally, and administrated once per day for 24 consecutive days.
During the dosing period, the xenograft volumes of the mice and the weights of the mice were measured every 2-4 days. When the MC38 subcutaneous xenograft from the solvent control group of grew to 700-800 mm^3, the experiment was stopped. Fresh tumors removed from the mice were sheared with scissors into fragments no more than 2 mm^3. The digestive enzyme was prepared according to the instructions of Tumor Dissociation Kit. The tumor tissue mass was re-suspended with 2.5 mL of prepared enzyme solution, and was placed into a gentleMACS™ Dissociator instrument for dissociating the tumor with a selected program. After completion of dissociation, the suspension was filtered with a 70 µM filter screen to obtain a cell suspension. The cell suspension was lysed with an erythrocyte lysing agent for 10 min, centrifuged at 300 g for 5 min, and re-suspended with PBS. Desired amount of cells were taken out after cell counting. The cells were first washed twice with PBS. After washing, each sample was re-suspended with 100 µL of PBS and 0.5 µL of the fluorescent antibody prepared according to the manufacturer’s instructions to distinguish dead and live cells was added. The samples were stained in the dark at 4° C. for 30 min. After 30 min, the samples were washed twice with 1 mL of the running buffer and the tubes were centrifuged at 300 g for 5 min at 4° C. The blocking antibody diluent was prepared by adding 2 µL of blocking antibody TruStain fcX™ (anti-mouse CD16/32) per 100 µL running buffer and was added on the basis of the 100 µL system of each sample. After blocking for 10 min, according to the manufacturer’s instructions, the fluorescent antibody corresponding to the surface protein was added to the samples, and the reactant was allowed for incubation at 4° C. for 30 min. At this step, a single staining control and an FMO control were set. Then, the samples were washed twice with 1 mL of the running buffer, and centrifuged at 300 g for 5 min at 4° C. each time.
If only surface proteins were to be examined, after centrifugation, the samples were re-suspended with 300 µL of PBS and immediately input into machines, or the samples were fixed with 4% paraformaldehyde for 15 min, and centrifuged at 500 g for 7 min. The supernatants were discarded and the pellets were re-suspended with PBS and stored for further machine analysis.
If intracellular factors were to be examined as well, when the supernatants were discarded after centrifugation, 100 µL of re-suspended samples were retained. IC fixation solution in Intracellular Fixation & Permeabilization Buffer Set was added to each sample based on the 100 µL volume. The samples were placed at 4° C. for fixation for 30 min. After the fixation was completed, the samples were centrifuged at 500 g for 7 min. 10×Permeabilization Buffer was prepared into 1×membrane destructive solution with triple distilled water. After centrifugation, 2 mL of 1×membrane destructive solution was added to each sample to re-suspend the samples, and the samples were centrifuged at 500 g for 7 min. The process was repeated twice. 1×membrane destructive solution was used to prepare the intracellular fluorescent antibody as recommended in the instructions for antibody. The cells were re-suspended in a system of 100 µL per well, and placed at 4° C. to stain for 30 min. At this step, a single staining control and an FMO control were set. […]

[2] = system: IL4/IL13-polarized murine BMDMs; assay: M2-biased polarization phenotype of BMDMs, flow cytometry of surface markers; type: cell-based, BALB/c mice; conditions: mouse-derived BMDM, 48 h
Protocol: BALB/c mice (female, 6 weeks old, healthy) were sacrificed. Bone marrow cells were taken from their femurs and tibia, and seeded into a 6-well culture plate at appropriate densities ([…], per well) after erythrobiasis treatment. 100 ng/mL of CSF-1 factor was added to each well to induce macrophages (Bone marrow-derived macrophages, BMDM). After 7 days of induction, the cell culture medium was changed. CSF-1 factor was added at the same concentration as above, and M2 polarization of macrophages was induced with 10 ng/mL of IL4 and 10 ng/mL of IL13. While inducing polarization, compounds at various concentrations were added into test wells and negative control wells. After 48 h, the cells were harvested for flow cytometric analysis.
Cells in good condition were collected, and first washed twice with PBS. After washing, each sample was re-suspended with 100 µL of PBS and 0.5 µL of the fluorescent antibody prepared according to the manufacturer’s instructions to distinguish dead and live cells was added. The samples were stained in the dark at 4° C. for 30 min. After 30 min, the samples were washed twice with 1mL of the running buffer and the tubes were centrifuged at 300 g for 5 min at 4° C. The blocking antibody diluent was prepared by adding 2 µL of blocking antibody TruStain fcX™ (anti-mouse CD16/32) per 100 µL running buffer and was added on the basis of the 100 µL system of each sample. After blocking for 10 min, according to the manufacturer’s instructions, the fluorescent antibody corresponding to the surface protein was added to the samples, and the reactant was allowed for incubation at 4° C. for 30 min. At this step, a single staining control and an FMO control were set. Then, the samples were washed twice with 1 mL of the running buffer, and centrifuged at 300 g for 5 min at 4° C. each time.
If only surface proteins were to be examined, after centrifugation, the samples were re-suspended with 300 µL of PBS and immediately input into machines, or the samples were fixed with 4% paraformaldehyde for 15 min, and centrifuged at 500 g for 7 min. […]

[3] = each dose group, oral once per day

CNC(=O)c1cccc2cc(Oc3ccnc(NC(=O)c4ccc(N5C[C@@H](C)N[C@@H](C)C5)cc4)c3)ccc12 [Compound I]
infiltration of Granzyme B+CD8+ T cells vs solvent control ([1]; 10 mg/kg group): significantly increased | infiltration of CD206+ M2-biased macrophages in TAMs [1, 3]: further down-regulated | infiltration of TAMs in tumor tissue vs solvent control [1, 3]: significantly reduced | infiltration of CD8+ T cells vs solvent control ([1]; oral once per day): no significant change | infiltration of IFNγ+CD8+ T cells vs solvent control ([1]; oral once per day): no significant change | infiltration of Treg cells ([1]; oral once per day): significantly reduced | expression level of surface marker CD206 (M2-type marker) ([2]; 25, 50 and 100 nM): significantly inhibit | expression level of surface marker CD86 (M1-type marker) [2]: significantly enhance | expression level of surface marker MHC-II (M1-type marker) [2]: significantly enhance
